Here are results for eight molecules from patent publication US9809623B2, “α4β7 peptide monomer and dimer antagonists” (Protagonist Therapeutics, Inc., priority 2014, dated 2017).

pIC50: −log10 of the molar value. Like-named read-outs stand apart in the source and are kept apart here. Numbered stars: 1 amine (or outer) side, 2 acyl side, 3 side chain; on linkers, the order of the positions; unused ones are H or OH. Bridge positions count the residues as written; N and C are the ends. Square brackets hold non-standard residues; d marks the D form. Peptide text beside a SMILES is read from it. I, II: the chains in the order shown. Phe(4-COOH) = N[C@@H](Cc1ccc(C(=O)O)cc1)C(=O)O; Diglycolyl = O=C(COCC(=O)[*:2])[*:1]; NMeR = CN[C@@H](CCCNC(=N)N)C(=O)O; β3hE = N[C@@H](CCC(=O)O)CC(=O)O; Pen = CC(C)(S)[C@H](N)C(=O)O; dNMeK = CN[C@H](CCCCN)C(=O)O

The target in one data set is T1, rh integrin α4β7 (Homo sapiens, UniProt P13612+P26010).
T1 construct: purchased R&D Systems 5397-A30
T1 sequence (P13612 34-977 limits assumed): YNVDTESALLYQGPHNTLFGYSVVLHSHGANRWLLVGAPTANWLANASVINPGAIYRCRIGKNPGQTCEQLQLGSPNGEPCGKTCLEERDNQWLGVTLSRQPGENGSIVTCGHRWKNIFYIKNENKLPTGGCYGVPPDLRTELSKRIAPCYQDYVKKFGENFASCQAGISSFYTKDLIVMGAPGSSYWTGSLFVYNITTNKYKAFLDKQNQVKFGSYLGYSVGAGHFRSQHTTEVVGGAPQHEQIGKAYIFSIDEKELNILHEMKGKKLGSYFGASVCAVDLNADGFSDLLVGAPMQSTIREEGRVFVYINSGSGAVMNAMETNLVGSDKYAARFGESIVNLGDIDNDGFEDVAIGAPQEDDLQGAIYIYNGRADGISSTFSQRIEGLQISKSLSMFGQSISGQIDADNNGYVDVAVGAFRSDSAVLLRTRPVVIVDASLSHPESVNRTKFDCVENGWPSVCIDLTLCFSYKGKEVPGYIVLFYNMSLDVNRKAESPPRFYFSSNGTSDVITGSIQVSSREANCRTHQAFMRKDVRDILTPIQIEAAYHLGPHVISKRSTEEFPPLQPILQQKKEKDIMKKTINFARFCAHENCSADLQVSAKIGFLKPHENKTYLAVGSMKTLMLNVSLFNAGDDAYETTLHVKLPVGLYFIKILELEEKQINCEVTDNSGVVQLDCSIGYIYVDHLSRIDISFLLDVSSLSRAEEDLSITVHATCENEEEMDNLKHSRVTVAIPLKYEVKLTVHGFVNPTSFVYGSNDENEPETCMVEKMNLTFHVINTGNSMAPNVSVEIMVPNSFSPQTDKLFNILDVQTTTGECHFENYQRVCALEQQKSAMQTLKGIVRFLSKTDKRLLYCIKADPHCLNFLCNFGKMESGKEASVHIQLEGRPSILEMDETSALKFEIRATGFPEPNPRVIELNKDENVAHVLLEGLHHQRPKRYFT
T1 sequence (P26010 20-723 limits assumed): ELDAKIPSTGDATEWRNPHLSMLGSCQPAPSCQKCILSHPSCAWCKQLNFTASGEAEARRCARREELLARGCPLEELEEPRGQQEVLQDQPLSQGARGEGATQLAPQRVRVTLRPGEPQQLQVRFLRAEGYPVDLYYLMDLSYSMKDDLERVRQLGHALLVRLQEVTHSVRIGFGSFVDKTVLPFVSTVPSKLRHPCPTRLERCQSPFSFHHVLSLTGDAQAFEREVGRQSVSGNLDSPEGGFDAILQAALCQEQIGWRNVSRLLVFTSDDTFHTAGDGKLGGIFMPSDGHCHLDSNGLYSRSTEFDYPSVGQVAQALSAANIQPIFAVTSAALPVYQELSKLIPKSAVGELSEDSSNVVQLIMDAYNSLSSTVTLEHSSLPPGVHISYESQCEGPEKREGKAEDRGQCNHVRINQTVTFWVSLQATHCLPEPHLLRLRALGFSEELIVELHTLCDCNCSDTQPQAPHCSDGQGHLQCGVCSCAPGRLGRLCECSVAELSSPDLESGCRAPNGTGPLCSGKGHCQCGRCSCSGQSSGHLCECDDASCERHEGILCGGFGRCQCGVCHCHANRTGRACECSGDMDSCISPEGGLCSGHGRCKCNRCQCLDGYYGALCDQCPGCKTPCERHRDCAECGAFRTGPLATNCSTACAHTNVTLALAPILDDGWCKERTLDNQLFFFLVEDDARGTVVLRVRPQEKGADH
Kind of data set: α4β7-MAdCAM Competition ELISA. The class given is binding. The gist of the method:
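Competition read-out was A450 after anti-human IgG1-HRP and TMB detection of bound recombinant human MAdCAM-1 (10 nM final). Peptides were serially diluted 3-fold from a final 10 μM and equilibrated 1 h at room temperature on nickel-captured α4β7 (800 ng/well). The buffer was Tris pH 7.6 with 1 mM Mn2+ or Mg2+.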

The nature of data set [1]: Simulated Intestinal Fluid (SIF) Stability Assay. It is filed as in vitro ADME, porcine. To be noted: pig, simulated intestinal fluid (SIF) with 1% porcine pancreatin. The gist of the method: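 Intestinal stability: percent peptide remaining over time, by LC-MS/MS peak-area ratio to internal standard, fitted to first-order decay for half-life. Conditions: 22 μM peptide, 1% pancreatin in pH 6.5 blank FASSIF, 37 °C.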

A further data set addresses T2, α4β1 (Homo sapiens, UniProt P05556+P13612, DEL729-798).
T2 construct: purchased R&D Systems 5668-A4
Kind of data set: α4β1-VCAM Competition ELISA. The class given is binding. The essentials: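 ELISA plates were coated with VCAM-1 Fc at 400 ng/well. Peptide dilutions (highest final 100 μM) and 60 nM α4β1 were incubated 2 h at 37 °C in pH 7.6 Tris buffer containing 1 mM Mn2+ or Mg2+. Integrin retained on the plate was detected by 9F10 antibody, then HRP secondary, with TMB absorbance at 450 nm.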

[2] abbreviates: Table 4-B, read-out: ELISA α4β7 IC50.
[3] abbreviates: pH 6.5, Table 4-C, t1/2, > means assay stopped at that time, read-out: SIF (porcine) Min.
Setting [4] is: Table 4-B, read-out: ELISA_α4β1 IC50.
[5] abbreviates: Table 3-B, Potency (α4β7), range classes, read-out: α4β7 ELISA IC50.
Setting [6] is: pH 6.5, Table 3-B, > means experiment was stopped at that time and half life was not reached, read-out: Stabilty SIF t1/2.
Setting [7] is: pH 6.5, Table 3-B, alone or in parentheses after >360, read-out: Stabilty SIF t1/2, in hr (converted).
The mark [8] stands for this setting: Table 3-B, Selectivity (α4β1), range classes, read-out: α4β1 ELISA IC50.

T2 sequence (P13612 34-977 limits assumed, stated change not applied): as the sequence (P13612 34-977 limits assumed) above
T2 sequence (P05556 21-728 limits assumed, stated change not applied): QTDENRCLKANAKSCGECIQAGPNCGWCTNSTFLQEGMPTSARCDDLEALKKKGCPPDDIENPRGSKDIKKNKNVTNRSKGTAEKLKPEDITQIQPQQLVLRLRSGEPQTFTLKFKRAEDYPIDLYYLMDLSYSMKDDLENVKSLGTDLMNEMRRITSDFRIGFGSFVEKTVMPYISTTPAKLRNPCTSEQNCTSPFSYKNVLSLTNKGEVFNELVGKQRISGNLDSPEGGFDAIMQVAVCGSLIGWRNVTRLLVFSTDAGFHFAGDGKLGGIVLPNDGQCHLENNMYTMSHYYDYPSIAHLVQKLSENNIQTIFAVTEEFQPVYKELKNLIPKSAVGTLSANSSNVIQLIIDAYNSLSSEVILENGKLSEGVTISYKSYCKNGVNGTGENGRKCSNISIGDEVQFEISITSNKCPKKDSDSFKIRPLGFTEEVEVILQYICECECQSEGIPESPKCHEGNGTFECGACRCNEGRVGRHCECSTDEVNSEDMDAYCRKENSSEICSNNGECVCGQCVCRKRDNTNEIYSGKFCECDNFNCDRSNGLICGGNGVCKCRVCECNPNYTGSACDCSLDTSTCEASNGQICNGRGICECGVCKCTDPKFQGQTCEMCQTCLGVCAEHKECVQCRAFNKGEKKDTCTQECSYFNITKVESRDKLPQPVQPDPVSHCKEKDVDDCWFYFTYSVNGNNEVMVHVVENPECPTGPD

Regarding `CC(=O)N[C@@H]1C(=O)N(C)[C@@H](CCCNC(=N)N)C(=O)N[C@@H](CO)C(=O)N[C@@H](CC(=O)O)C(=O)N[C@@H]([C@@H](C)O)C(=O)N[C@@H](CC(C)C)C(=O)N[C@H](C(=O)N[C@@H](Cc2c[nH]c3ccccc23)C(=O)N[C@@H](CCC(=O)O)C(=O)N(C)[C@H](CCCCNC(=O)COCC(=O)NCCCC[C@H](C(N)=O)N(C)C(=O)[C@H](CCC(=O)O)NC(=O)[C@H](Cc2c[nH]c3ccccc23)NC(=O)[C@H]2NC(=O)[C@H](CC(C)C)NC(=O)[C@H]([C@@H](C)O)NC(=O)[C@H](CC(=O)O)NC(=O)[C@H](CO)NC(=O)[C@H](CCCNC(=N)N)N(C)C(=O)[C@@H](NC(C)=O)C(C)(C)SSC2(C)C)C(N)=O)C(C)(C)SSC1(C)C` [compound 214, [Ac-Pen-(N-Me-Arg)-Ser-Asp-Thr-Leu-Pen-Trp-Glu-(N-Me-D-Lys)-NH2]2-DIG] (I: Ac-[Pen][NMeR]SDTL[Pen]WE[dNMeK]-NH2 / II: Ac-[Pen][NMeR]SDTL[Pen]WE[dNMeK]-NH2; disulfide I:1-I:7, II:1-II:7 (inferred); linker I:10-II:10 via Diglycolyl (inferred)), the results for the pIC50 on rh integrin α4β7 (setting [2]) and at α4β1 (setting [4]) were 8.39 and 6.36, respectively. The half-life at 22 μM in data set [1] (setting [3]) was above 13.5 h.

Take `CC(=O)N[C@H]1CSSC[C@@H](C(=O)NCC(=O)N[C@@H](CCC(=O)O)C(N)=O)NC(=O)[C@H](CC(C)C)NC(=O)[C@H]([C@@H](C)O)NC(=O)[C@H](CC(=O)O)NC(=O)[C@H](CO)NC(=O)[C@H](CCCNC(=N)N)NC1=O` [compound 194, Ac-C-R-S-D-T-L-C-G-E-NH2] (Ac-CRSDTLCGE-NH2; disulfide 1-7): the pIC50 (usually the IC50 on a negative log10 scale, so that one unit is a factor of ten) is 7.01 at rh integrin α4β7 (setting [2]) and 5.69 on α4β1 (setting [4]). Moreover, the half-life at 22 μM in data set [1] (setting [3]) was below 0.0167 h.

For `CC(=O)N[C@@H]1C(=O)N(C)[C@@H](CCCNC(=N)N)C(=O)N[C@@H](CO)C(=O)N[C@@H](CC(=O)O)C(=O)N[C@@H]([C@@H](C)O)C(=O)N[C@@H](CC(C)C)C(=O)N[C@H](C(=O)N[C@@H](Cc2ccc(C(=O)O)cc2)C(=O)N[C@@H](CCC(=O)O)CC(=O)N[C@H](CCCCNC(=O)COCC(=O)NCCCC[C@@H](NC(=O)C[C@H](CCC(=O)O)NC(=O)[C@H](Cc2ccc(C(=O)O)cc2)NC(=O)[C@H]2NC(=O)[C@H](CC(C)C)NC(=O)[C@H]([C@@H](C)O)NC(=O)[C@H](CC(=O)O)NC(=O)[C@H](CO)NC(=O)[C@H](CCCNC(=N)N)N(C)C(=O)[C@@H](NC(C)=O)C(C)(C)SSC2(C)C)C(N)=O)C(N)=O)C(C)(C)SSC1(C)C` [compound 130] (I: Ac-[Pen][NMeR]SDTL[Pen][Phe(4-COOH)][β3hE][dK]-NH2 / II: Ac-[Pen][NMeR]SDTL[Pen][Phe(4-COOH)][β3hE][dK]-NH2; disulfide I:1-I:7, II:1-II:7; linker I:10-II:10 via Diglycolyl), the values for the pIC50 at rh integrin α4β7 (setting [5]) and at α4β1 (setting [8]) were above 8.00 and 6.30 to 7.00, respectively. The half-life at 22 μM was above 6 h in data set [1] (setting [6]) and 16 h in data set [1] (setting [7]).

Regarding `CC(=O)N[C@@H]1C(=O)N(C)[C@@H](CCCNC(=N)N)C(=O)N[C@@H](CO)C(=O)N[C@@H](CC(=O)O)C(=O)N[C@@H]([C@@H](C)O)C(=O)N[C@@H](CC(C)C)C(=O)N[C@H](C(=O)N[C@@H](Cc2ccc(C(=O)O)cc2)C(=O)N[C@@H](CCC(=O)O)C(=O)N[C@H](CCCCNC(=O)COCC(=O)NCCCC[C@@H](NC(=O)[C@H](CCC(=O)O)NC(=O)[C@H](Cc2ccc(C(=O)O)cc2)NC(=O)[C@H]2NC(=O)[C@H](CC(C)C)NC(=O)[C@H]([C@@H](C)O)NC(=O)[C@H](CC(=O)O)NC(=O)[C@H](CO)NC(=O)[C@H](CCCNC(=N)N)N(C)C(=O)[C@@H](NC(C)=O)C(C)(C)SSC2(C)C)C(N)=O)C(N)=O)C(C)(C)SSC1(C)C` [compound 129] (I: Ac-[Pen][NMeR]SDTL[Pen][Phe(4-COOH)]E[dK]-NH2 / II: Ac-[Pen][NMeR]SDTL[Pen][Phe(4-COOH)]E[dK]-NH2; disulfide I:1-I:7, II:1-II:7; linker I:10-II:10 via Diglycolyl), the values for the negative logarithm of the IC50 (pIC50) on rh integrin α4β7 (setting [5]) and on α4β1 (setting [8]) were above 8.00 and 6.30 to 7.00, respectively. Also, the results for the half-life at 22 μM in data set [1] (setting [6]) and in data set [1] (setting [7]) were above 6 h and 13 h, respectively.

For the molecule `CC(=O)N[C@@H]1C(=O)N(C)[C@@H](CCCNC(=N)N)C(=O)N[C@@H](CO)C(=O)N[C@@H](CC(=O)O)C(=O)N[C@@H]([C@@H](C)O)C(=O)N[C@@H](CC(C)C)C(=O)N[C@H](C(=O)N[C@@H](Cc2c[nH]c3ccccc23)C(=O)N[C@H](CCC(=O)O)C(=O)N[C@H](CCCCNC(=O)COCC(=O)NCCCC[C@@H](NC(=O)[C@@H](CCC(=O)O)NC(=O)[C@H](Cc2c[nH]c3ccccc23)NC(=O)[C@H]2NC(=O)[C@H](CC(C)C)NC(=O)[C@H]([C@@H](C)O)NC(=O)[C@H](CC(=O)O)NC(=O)[C@H](CO)NC(=O)[C@H](CCCNC(=N)N)N(C)C(=O)[C@@H](NC(C)=O)C(C)(C)SSC2(C)C)C(=O)O)C(=O)O)C(C)(C)SSC1(C)C` [compound 216, (Ac-Pen-N-Me-R-S-D-T-L-Pen-W-e-k-OH)2-DIG] (I: Ac-[Pen][NMeR]SDTL[Pen]W[dE][dK]-OH / II: Ac-[Pen][NMeR]SDTL[Pen]W[dE][dK]-OH; disulfide I:1-I:7, II:1-II:7 (inferred); linker I:10-II:10 via Diglycolyl (inferred)), the pIC50 at rh integrin α4β7 (setting [2]) was 8.55; at α4β1 (setting [4]) it was 6.61. Also, the half-life at 22 μM in data set [1] (setting [3]) is above 3 h.

With `CC(=O)N[C@@H]1C(=O)N(C)[C@@H](CCCNC(=N)N)C(=O)N[C@@H](CO)C(=O)N[C@@H](CC(=O)O)C(=O)N[C@@H]([C@@H](C)O)C(=O)N[C@@H](CC(C)C)C(=O)N[C@H](C(=O)N[C@@H](Cc2c[nH]c3ccccc23)C(=O)N[C@H](CCC(=O)O)C(=O)N[C@H](CCCCNC(=O)COCC(=O)NCCCC[C@@H](NC(=O)[C@@H](CCC(=O)O)NC(=O)[C@H](Cc2c[nH]c3ccccc23)NC(=O)[C@H]2NC(=O)[C@H](CC(C)C)NC(=O)[C@H]([C@@H](C)O)NC(=O)[C@H](CC(=O)O)NC(=O)[C@H](CO)NC(=O)[C@H](CCCNC(=N)N)N(C)C(=O)[C@@H](NC(C)=O)C(C)(C)SSC2(C)C)C(N)=O)C(N)=O)C(C)(C)SSC1(C)C` [compound 68] (I: Ac-[Pen][NMeR]SDTL[Pen]W[dE][dK]-NH2 / II: Ac-[Pen][NMeR]SDTL[Pen]W[dE][dK]-NH2; disulfide I:1-I:7, II:1-II:7; linker I:10-II:10 via Diglycolyl), the pIC50 on rh integrin α4β7 (setting [5]) is above 8.00; on α4β1 (setting [8]), 6.00 to 6.30. The half-life at 22 μM in data set [1] (setting [6]) is above 5 h.

With `CC(=O)N[C@H]1CSSC[C@@H](C(=O)NCC(=O)N[C@@H](CCC(=O)O)C(=O)N[C@@H](CCCCN)C(=O)O)NC(=O)[C@H](CC(C)C)NC(=O)[C@H]([C@@H](C)O)NC(=O)[C@H](CC(=O)O)NC(=O)[C@H](CO)NC(=O)[C@H](CCCNC(=N)N)N(C)C1=O` [compound 199, Ac-C-N-Me-R-S-D-T-L-C-G-E-K-OH] (Ac-C[NMeR]SDTLCGEK-OH; disulfide 1-7), the values for the pIC50 at rh integrin α4β7 (setting [2]) and on α4β1 (setting [4]) were 7.24 and below 4.00, respectively. Moreover, the half-life at 22 μM in data set [1] (setting [3]) was 0.45 h.

With `CC(=O)N[C@@H]1C(=O)N(C)[C@@H](CCCNC(=N)N)C(=O)N[C@@H](CO)C(=O)N[C@@H](CC(=O)O)C(=O)N[C@@H]([C@@H](C)O)C(=O)N[C@@H](CC(C)C)C(=O)N[C@H](C(=O)N[C@@H](Cc2c[nH]c3ccccc23)C(=O)N[C@@H](CCC(=O)O)C(=O)N[C@H](CCCCNC(=O)COCC(=O)NCCCC[C@@H](NC(=O)[C@H](CCC(=O)O)NC(=O)[C@H](Cc2c[nH]c3ccccc23)NC(=O)[C@H]2NC(=O)[C@H](CC(C)C)NC(=O)[C@H]([C@@H](C)O)NC(=O)[C@H](CC(=O)O)NC(=O)[C@H](CO)NC(=O)[C@H](CCCNC(=N)N)N(C)C(=O)[C@@H](NC(C)=O)C(C)(C)SSC2(C)C)C(N)=O)C(N)=O)C(C)(C)SSC1(C)C` [compound 217, (Ac-Pen-N-Me-R-S-D-T-L-Pen-W-E-k-NH2)2-DIG] (I: Ac-[Pen][NMeR]SDTL[Pen]WE[dK]-NH2 / II: Ac-[Pen][NMeR]SDTL[Pen]WE[dK]-NH2; disulfide I:1-I:7, II:1-II:7 (inferred); linker I:10-II:10 via Diglycolyl (inferred)), the pIC50 on rh integrin α4β7 (setting [2]) was 8.64; at α4β1 (setting [4]), 6.50. In data set [1] (setting [3]), the half-life at 22 μM was 2.02 h.
